This is an account of results in patent US11603350B2, “Compound, composition, cured object, optically anisotropic body, and reflective film” (FUJIFILM Corporation, priority 2016, dated 2023).

What all share (format): physicochemical
Data set [1] is described as follows: Evaluation of light resistance (residual rate after ultraviolet irradiation). Particulars: 5 mg in acetonitrile (20 ml), 1 cm quartz cell, ultraviolet light 3 J/cm^2; residual rate by liquid chromatography. As for the experimental part: Each (5 mg) of the compounds was dissolved in acetonitrile (20 ml), sealed in a 1 cm quartz cell, and the quartz cell was irradiated with ultraviolet light under a condition of 3 J/cm^2 using EXECURE 3000-W manufactured by HOYA-SCHOTT CORPORATION, so that a residual rate of each compound was measured. Amounts (masses) of each compound before and after light irradiation were calculated using liquid chromatography. In Table 1, “A” represents a residual rate of equal to or greater than 80%, “B” represents a residual rate of equal to or greater than 50% and less than 80%, and “C” represents a residual rate of less than 50%.
The residual rate is a ratio of an amount (mass) of a compound after light irradiation to an amount (mass) of the compound before light irradiation, and can be calculated by the following expression. Residual rate (%)=(amount of compound after light irradiation/amount of compound before light irradiation)×100

Data set [2] can be described thus: Δn (refractive index anisotropy) measurement, wedge-shaped liquid crystal cell. Particulars: at 550 nm and 30° C.; for compounds liable to crystallize, estimated from extrapolated values of mixtures with other liquid crystals. From the text: As a method of measuring the Δn, a method using a wedge-shaped liquid crystal cell described on page 202 of the Liquid Crystal Handbook (edited by Liquid Crystal Handbook Editing Committee, published by Maruzen Co., Ltd.) is generally used. In a case of a compound which is liable to crystallize, it is also possible to carry out evaluation with a mixture thereof with other liquid crystals and to estimate Δn from extrapolated values thereof.
The Δn corresponds to a measured value at a wavelength of 550 nm at 30° C.
Δn of each of the compounds was measured by a method using a wedge-shaped liquid crystal cell described on page 202 of the Liquid Crystal Handbook (edited by Liquid Crystal Handbook Editing Committee, published by Maruzen Co., Ltd.). In a case of the compound which is liable to crystallize, evaluation with a mixture thereof with other liquid crystals was carried out and Δn was estimated from extrapolated values thereof. The values in the table represent Δn's at 550 nm and 30° C.

Data set [3] can be described thus: Solubility measurement in ethyl methyl ketone. Particulars: concentration in ethyl methyl ketone solution where the compound was completely dissolved. On the procedure:
Ethyl methyl ketone was added dropwise to each of the compounds, and a concentration (% by mass) of the compound in the obtained ethyl methyl ketone solution in a case where the compound was completely dissolved in the solution was measured as “solubility”. It is intended that a higher numerical value of solubility indicates excellent solubility in ethyl methyl ketone.

On to `C=CC(=O)OCCCCOc1ccc(C#Cc2ccc(NC(=O)c3ccc(OCCCCOC(=O)C=C)cc3)cc2C)cc1` [Compound a-3], for which the Light resistance evaluation result in data set [1] is recorded as “A (a residual rate of equal to or greater than 80%)”. Besides, the Δn in data set [2] is reported as 0.282. The compound further showed a Solubility in data set [3] of 19 % by mass.
For `C=CC(=O)OCCCCOc1ccc(C(=O)Oc2ccc(C#Cc3ccc(CCCCCCC)cc3)cc2)cc1` [Compound b-1, reference compound], in data set [1], the Light resistance evaluation result is “C (a residual rate of less than 50%)”. For the same compound, in data set [2], the Δn was 0.220.
For the compound `C=CC(=O)OCCCCOc1ccc(C#Cc2ccc(NC(=O)c3ccc(OCCCCOC(=O)C=C)cc3)c(OC)c2)cc1` [Compound a-4], in data set [1], the Light resistance evaluation result is “A (a residual rate of equal to or greater than 80%)”. Further, the Δn in data set [2] is listed as 0.301. This compound also came in with a Solubility in data set [3] of 20 % by mass.
As for `C=CC(=O)OCCCCOc1ccc(C#Cc2ccc(C(=O)Nc3ccc(C#Cc4ccc(OCCCCOC(=O)C=C)cc4)cc3C(F)(F)F)cc2)cc1` [Compound a-8], the Light resistance evaluation entry in data set [1] was “A (a residual rate of equal to or greater than 80%)”. In addition, the Δn in data set [2] is 0.370. The Solubility in data set [3] is recorded as 22 % by mass.
In the case of `C=CC(=O)OCCCCOc1ccc(C#Cc2ccc(NC(=O)c3ccc(OCCCCOC(=O)C=C)cc3)c(C)c2)cc1` [Compound a-2], the Light resistance evaluation entry in data set [1] was “A (a residual rate of equal to or greater than 80%)”. The Δn in data set [2] was 0.280. The compound further displayed a Solubility in data set [3] of 23 % by mass.
On to `C=CC(=O)OCCCCOc1ccc(C#Cc2ccc(NC(=O)c3ccc(OCCCCOC(=O)C=C)cc3)c(C(F)(F)F)c2)cc1` [Compound a-6], for which, in data set [1], the Light resistance evaluation result is recorded as “A (a residual rate of equal to or greater than 80%)”. Besides, the Δn in data set [2] is listed as 0.287. The compound further registered a Solubility in data set [3] of 38 % by mass.
For the compound `C=CC(=O)OCCCCOc1ccc(C(=O)Nc2ccc(C#Cc3ccc4nc(SCCCCOC(=O)C=C)sc4c3)cc2C(F)(F)F)cc1` [Compound a-7], in data set [1], the Light resistance evaluation result is recorded as “A (a residual rate of equal to or greater than 80%)”. Besides, in data set [2], the Δn was 0.304. Also, in data set [3], the Solubility was determined as 22 % by mass.
For `C=CC(=O)OCCCCOc1ccc(C#Cc2ccc(NC(=O)c3ccc(OCCCCOC(=O)C=C)cc3)cc2)cc1` [Compound a-1], the Light resistance evaluation result in data set [1] is listed as “A (a residual rate of equal to or greater than 80%)”. In addition, the Δn in data set [2] is 0.289. Besides, the Solubility in data set [3] was 5 % by mass.
As to `C=CC(=O)OCCCCOc1ccc(C#Cc2ccc(NC(=O)c3ccc(OCCCCOC(=O)C=C)cc3)c(F)c2)cc1` [Compound a-5], the Light resistance evaluation entry in data set [1] is listed as “A (a residual rate of equal to or greater than 80%)”. Also, the Δn in data set [2] is listed as 0.278. The Solubility in data set [3] amounted to 11 % by mass.
